Measured values as given in PMC10318822, “Phase 1 dose-escalation study to evaluate the safety, tolerability, pharmacokinetics, and anti-tumor activity of FCN-159 in adults with neurofibromatosis type 1-related unresectable plexiform neurofibromas” (BMC Medicine, 2023).

Tested on: adult patients with NF1-related PN
Experiment: Phase I dose-escalation: DLT, MTD, RP2D and drug-related TEAEs (CTCAE v5.0)
Description: This is a multicenter, open-label, single-arm, non-randomized, phase I dose-escalation trial to evaluate the safety, tolerability, pharmacokinetic (PK), and anti-tumor activity of orally administered FCN-159 in adult patients with NF1 (NCT04954001). Phase I commenced with dose escalation in adult patients following a standard 3 + 3 design (Supplementary Table S1) to determine the maximum tolerated dose (MTD) of FCN-159 administered daily under fasting conditions (defined as no food or drink 1 h before and 2 h after each dose) in 28-day cycles. Study drug was dispensed at the study site and patient adherence was monitored by the records of drug dispensation and return. Patients were on treatment until PD, death, patient's voluntary withdrawal from study treatment, or study termination. The study was followed for 2 years after the last patient in. The starting dose was 4 mg, escalating in cohorts of at least three evaluable patients at 6 mg, 8 mg, and 12 mg until the MTD was determined. The starting dose in this study was determined based on available data from a phase 1a, first-in-human study of FCN-159 in patients with advanced NRAS ^mut+ melanoma at the time of study design. […] Dose expansion at a likely RP2D level enrolled approximately six patients. The highest dose level with a dose-limiting toxicity (DLT) incidence rate ≤ 33% (0/3 or 1/6 patients) was to be considered the MTD. If patients experienced grade ≥ 3 and/or unacceptable toxic events that were considered as at least possibly related to the study treatment, the study treatment was discontinued and supportive treatment was given in accordance with local treatment routines. If the toxicity returned to grade ≤ 2 within 28 days after the occurrence, and there was no progression on patients’ conditions or the investigator believed that patients could benefit from the study treatment, the original dose could be maintained or reduced after discussion with medical monitor. After completion of the dose escalation part of the study, PK, efficacy, safety, and tolerability data were analyzed to select the RP2D.
Primary endpoints of the study were the DLT incidence rate, MTD, and RP2D. Secondary endpoints included other safety assessments, imaging tumor response (complete response [CR], PR, stable disease [SD], or progressive disease [PD]), and PK parameters of FCN-159. Adverse events were graded per CTCAE v5.0.
All patients underwent a complete medical history, physical examination, Eastern Cooperative Oncology Group (ECOG) assessment, and laboratory analysis of test results. Drug-related TEAEs, serious adverse events (SAEs), TEAEs of grade ≥ 3 toxicity, and TEAEs leading to drug discontinuation were reviewed on an ongoing basis. Efficacy was assessed by radiologic scans and clinical assessment. Tumor assessments per Response Evaluation in Neurofibromatosis Schwannomatosis criteria were performed by investigators using MRI volumetric analysis every 4 cycles within the first 2 years (± 7 days) and every 6 cycles after 2 years (± 14 days) until PD, death, patient's voluntary withdrawal from study treatment, or study termination. MRI sequences of […], T1- and T2-weighted sequences were chosen and the software of Extended Brilliance Workspace, SIGNA Premier and uExceed were used for MRI volumetric analysis. The same software was used for all tumor assessments at baseline and subsequent assessed timepoints of the same patient. Pain was assessed by an 11-point numerical rating scale (NRS-11).
The sample size for the dose-escalation study was estimated to be 24 based on the 3 + 3 method. Safety was analyzed in patients who received at least one dose of FCN-159 and had at least one safety assessment. DLT was assessed in the DLT analysis set, defined as patients who were enrolled in the dose-escalation study and met the DLT evaluation criteria.

Cn1c(=O)c(F)c(Nc2ccc(I)cc2F)c2c(=O)n(C3CC3)nc(-c3cccc(NS(=O)(=O)C4CC4)c3)c21 [FCN-159]
4 (50.0) n (%): Drug-related TEAE: Folliculitis (8 mg (N = 8))
3 (37.5) n (%): Drug-related TEAE: Blood alkaline phosphatase increased (8 mg (N = 8))
4 (100) n (%): Subjects with any drug-related TEAE (6 mg (N = 4))
2 (50.0) n (%): Drug-related TEAE: Drug eruption (6 mg (N = 4)) | Drug-related TEAE: Paronychia (6 mg (N = 4)) | Drug-related TEAE: Protein urine present (6 mg (N = 4)) | Drug-related TEAE: Specific gravity urine increased (6 mg (N = 4)) | Drug-related TEAE: Stomatitis (6 mg (N = 4)) | Drug-related TEAE: Total bile acids increased (6 mg (N = 4)) | Drug-related TEAE: Urobilinogen urine increased (6 mg (N = 4))
1 (12.5) n (%): Drug-related TEAE: Abdominal pain (8 mg (N = 8)) | Drug-related TEAE: Acne pustular (8 mg (N = 8)) | Drug-related TEAE: Alanine aminotransferase increased (8 mg (N = 8)) | Drug-related TEAE: Albumin globulin ratio decreased (8 mg (N = 8)) | Drug-related TEAE: Alopecia (8 mg (N = 8)) | Drug-related TEAE: Anemia (8 mg (N = 8)) | Drug-related TEAE: Aortic dilatation (8 mg (N = 8)) | Drug-related TEAE: Blood lactate dehydrogenase increased (8 mg (N = 8)) | Drug-related TEAE: Blood urea increased (8 mg (N = 8)) | Drug-related TEAE: Breath odor (8 mg (N = 8)) | Drug-related TEAE: Constipation (8 mg (N = 8)) | Drug-related TEAE: Decreased appetite (8 mg (N = 8)) | Drug-related TEAE: Dermatitis acneiform (8 mg (N = 8)) | Drug-related TEAE: Diarrhea (8 mg (N = 8)) | Drug-related TEAE: Dyslipidemia (8 mg (N = 8)) | Drug-related TEAE: Ejection fraction decreased (8 mg (N = 8)) | Drug-related TEAE: Electrocardiogram QT prolonged (8 mg (N = 8)) | Drug-related TEAE: Epistaxis (8 mg (N = 8)) | Drug-related TEAE: Functional gastrointestinal disorder (8 mg (N = 8)) | Drug-related TEAE: Gingival pain (8 mg (N = 8)) | Drug-related TEAE: Hypertension (8 mg (N = 8)) | Drug-related TEAE: Hypoalbuminemia (8 mg (N = 8)) | Drug-related TEAE: Hypocalcemia (8 mg (N = 8)) | Drug-related TEAE: Hypophosphatemia (8 mg (N = 8)) | Drug-related TEAE: Hypoproteinemia (8 mg (N = 8)) | Drug-related TEAE: Immunoglobulins increased (8 mg (N = 8)) | Drug-related TEAE: Left atrial enlargement (8 mg (N = 8))
0 n (%): Drug-related TEAE: Decreased appetite (6 mg (N = 4)) | Drug-related TEAE: Dermatitis acneiform (6 mg (N = 4)) | Drug-related TEAE: Diarrhea (6 mg (N = 4)) | Drug-related TEAE: Dyslipidemia (6 mg (N = 4)) | Drug-related TEAE: Ejection fraction decreased (6 mg (N = 4)) | Drug-related TEAE: Electrocardiogram QT prolonged (6 mg (N = 4)) | Drug-related TEAE: Electrocardiogram abnormal (6 mg (N = 4)) | Drug-related TEAE: Epistaxis (6 mg (N = 4)) | Drug-related TEAE: Functional gastrointestinal disorder (6 mg (N = 4)) | Drug-related TEAE: Gingival pain (6 mg (N = 4)) | Drug-related TEAE: Hyperlipidemia (6 mg (N = 4)) | Drug-related TEAE: Hypertension (6 mg (N = 4)) | Drug-related TEAE: Hypoalbuminemia (6 mg (N = 4)) | Drug-related TEAE: Hypophosphatemia (6 mg (N = 4)) | Drug-related TEAE: Hypoproteinemia (6 mg (N = 4)) | Drug-related TEAE: Impetigo (6 mg (N = 4)) | Drug-related TEAE: Left atrial enlargement (6 mg (N = 4)) | Drug-related TEAE: Lipoprotein abnormal (6 mg (N = 4)) | Drug-related TEAE: Malaise (6 mg (N = 4)) | Drug-related TEAE: Menstrual disorder (6 mg (N = 4)) | Drug-related TEAE: Mouth ulceration (6 mg (N = 4)) | Drug-related TEAE: Muscular weakness (6 mg (N = 4)) | Drug-related TEAE: Pain in extremity (6 mg (N = 4)) | Drug-related TEAE: Prealbumin decreased (6 mg (N = 4)) | Drug-related TEAE: Pruritus (6 mg (N = 4)) | Drug-related TEAE: QRS axis abnormal (6 mg (N = 4)) | Drug-related TEAE: Sinus arrhythmia (6 mg (N = 4)) | Drug-related TEAE: Sinus bradycardia (6 mg (N = 4)) | Drug-related TEAE: Sinusitis (6 mg (N = 4)) | Drug-related TEAE: Skin exfoliation (6 mg (N = 4)) | Drug-related TEAE: Supraventricular extrasystoles (6 mg (N = 4)) | Drug-related TEAE: Urinary sediment present (6 mg (N = 4)) | Drug-related TEAE: Urine ketone body present (6 mg (N = 4)) | Drug-related TEAE: Urticaria (6 mg (N = 4)) | Drug-related TEAE: Vision blurred (6 mg (N = 4)) | Drug-related TEAE: pH urine increased (6 mg (N = 4)) | Drug-related TEAE: Acne (8 mg (N = 8)) | Drug-related TEAE: Amylase increased (8 mg (N = 8)) | Drug-related TEAE: Aspartate aminotransferase increased (8 mg (N = 8)) | Drug-related TEAE: Asthenia (8 mg (N = 8)) | Drug-related TEAE: Beta globulin decreased (8 mg (N = 8)) | Drug-related TEAE: Beta globulin increased (8 mg (N = 8)) | Drug-related TEAE: Blood fibrinogen increased (8 mg (N = 8)) | Drug-related TEAE: Blood pressure increased (8 mg (N = 8)) | Drug-related TEAE: Blood uric acid increased (8 mg (N = 8)) | Drug-related TEAE: Capillary disorder (8 mg (N = 8)) | Drug-related TEAE: Electrocardiogram abnormal (8 mg (N = 8)) | Drug-related TEAE: Gamma-glutamyltransferase increased (8 mg (N = 8)) | Drug-related TEAE: Hyperlipidemia (8 mg (N = 8)) | Drug-related TEAE: Impetigo (8 mg (N = 8)) | Drug-related TEAE: Lipoprotein abnormal (8 mg (N = 8)) | Drug-related TEAE: Malaise (8 mg (N = 8)) | Drug-related TEAE: Menstrual disorder (8 mg (N = 8))
1 (25.0) n (%): Drug-related TEAE: Folliculitis (6 mg (N = 4)) | Drug-related TEAE: Gamma-glutamyltransferase increased (6 mg (N = 4)) | Drug-related TEAE: Hypocalcemia (6 mg (N = 4)) | Drug-related TEAE: Immunoglobulins increased (6 mg (N = 4)) | Drug-related TEAE: Mitral valve incompetence (6 mg (N = 4)) | Drug-related TEAE: Oedema peripheral (6 mg (N = 4)) | Drug-related TEAE: Rash (6 mg (N = 4)) | Drug-related TEAE: Tricuspid valve incompetence (6 mg (N = 4)) | Drug-related TEAE: Urinary occult blood positive (6 mg (N = 4)) | Drug-related TEAE: Urinary tract infection (6 mg (N = 4)) | Drug-related TEAE: Visual acuity reduced (6 mg (N = 4)) | Drug-related TEAE: pH urine decreased (6 mg (N = 4))
2 (25.0) n (%): Drug-related TEAE: Blood bilirubin increased (8 mg (N = 8)) | Drug-related TEAE: Blood creatine phosphokinase increased (8 mg (N = 8)) | Drug-related TEAE: Drug eruption (8 mg (N = 8)) | Drug-related TEAE: Mitral valve incompetence (8 mg (N = 8))
